Measurements as given in US20060009425A1, “Oral formulations of paricalcitol” (priority 2004, published 2006).

Key:
[1] = Phase 3 TIW study, safety (Example 6)
Method: Additionally, safety was assessed by the incidence of adverse events, the change from baseline in chemistry, hematology and urinalysis laboratory variables, the change from baseline in subject vital signs, and progressive changes in renal function observed via changes in eGFR.
All randomized subjects who received at least 1 dose of study drug were used in safety analyses. […] This comparison was performed using a Fisher's exact test. Secondary safety analyses were performed comparing changes/percent changes from baseline between the paricalcitol and placebo treatment groups using a one-way ANOVA with treatment group as the factor for the following variables: hematology, complete chemistry, and urinalysis variables; 24-hour urine collections, eGFR, urinary calcium/creatinine ratio, cardiovascular markers, and vital signs. Secondary safety analyses also consisted of an analysis of “treatment-emergent” adverse events (i.e., adverse events with an onset date on or after the date the first dose of study drug was taken). Adverse events were summarized by body system and COSTART term according to the COSTART V adverse event-coding dictionary. Comparisons of the percentage of subjects experiencing an adverse event between the paricalcitol and placebo treatment groups were performed using a Fisher's exact test.

[2] = test system: biochemical bone activity markers; test: Combined Phase 3 studies, biochemical bone activity markers; type: in vivo, human
Source text: Serum bone-specific alkaline phosphate and serum osteocalcin are considered more sensitive bone markers to evaluate degree of bone remodeling than urinary bone marker. […] These subjects received treatment with the oral formulations of the present invention or a placebo. The bone markers examined in these subjects were serum osteocalcin, serum bone-specific alkaline phosphatase, urinary pyridinoline, and deoxypyridinoline. If more than 1 biochemical bone activity marker measurement existed for a subject on a particular day, the higher measurement was considered to be that subject's biochemical bone activity marker measurement for that day. […] The Final Visit measurement was defined as the last biochemical bone activity marker measurement following the first dose of study drug.
The Week 11 Visit measurement was defined as the biochemical bone activity marker measurement on the day closest to the Week 11 scheduled visit, for which the possible measurements to choose from were those collected within 64 and 77 days following the first dose of study drug.
Changes from baseline to Week 11 Visit and to Final Visit in biochemical bone activity markers were compared between oral paricalcitol and placebo using an ANOVA with treatment as the factor on the combined Phase 3 all treated subject population (Table F). Also, the changes from baseline to Week 11 Visit and to Final Visit were compared between oral paricalcitol and placebo using an ANCOVA with baseline as the second factor on the combined Phase 3 all treated subject population (Table G).
In this example, paricalcitol capsules were evaluated in 3 double-blind, placebo-controlled multicenter studies in CKD stage 3-4 subjects with 2° HPT; 2 of these studies were conducted with TIW dosing and 1 was done with QD dosing. Subjects with eGFR (MDRD formula) 15-60 ml/min/1.73 m^2, iPTH ≧150 pg/mL, serum Ca 8.0-10.0 mg/dL and PO4≦5.2 mg/dL were randomized 1:1 and treated with paricalcitol capsule or placebo for 24 weeks. A total of 145 subjects used TIW regimen (paricalcitol: 72; placebo: 73) and 75 subjects (paricalcitol: 35; placebo: 40) used QD regimen. After the initial doses, doses were titrated based on serum Ca, P and iPTH results that were measured every 2 weeks; dose increases occurred once every 4 weeks and decreases every 2 weeks. Dosing administrations are shown below in Table 18.

[3] = test system: serum parathyroid hormone (PTH) levels; test: Phase 3 placebo-controlled TIW study, iPTH reduction (Example 7); type: in vivo, human
Source text: Methodology: This was a Phase 3, prospective, randomized, placebo-controlled, double-blind, 24-week Treatment Phase, multi-center study in CKD (Stages 3 and 4) subjects with elevated PTH levels (≧150 pg/mL). Subjects were randomized in an equal ratio (1:1) to 1 of 2 treatment groups: paricalcitol capsule (Group 1) and placebo (Group 2). Potential subjects underwent procedures to determine their baseline intact PTH (iPTH), calcium, and phosphorus levels for eligibility to receive treatment.
During the Treatment Phase, subjects were to self-administer study drug 3 times weekly, on Monday, Wednesday and Friday, for a total of 24 weeks. The initial dose was 2 or 4 mcg (depending on baseline iPTH levels). Procedures to be performed during the Treatment Phase included vital signs, chemistry and hematology, urinary pyridinoline, urinary deoxypyridinoline, serum bone-specific alkaline phosphatase, serum osteocalcin, urinalysis, spot urine for calcium/creatinine ratio, and recording of adverse events and concurrent medications. Serum iPTH, calcium, phosphorus, and albumin were measured every 2 weeks. Dose adjustments were to be made according to these chemistry results for iPTH, calcium, and phosphorus. Doses may have been increased in 2 mcg increments every 4 weeks.
Efficacy: The primary efficacy endpoint was the achievement of 2 consecutive ≧30% decreases from baseline iPTH levels. The secondary efficacy analyses include change and percent change from baseline analyses in iPTH and change from baseline analyses in biochemical bone markers.
The Intent-To-Treat population (Full Analysis Set) was defined as all randomized subjects with a baseline iPTH and at least 2 on-treatment iPTH measurements. This population was used in the primary efficacy analysis.

[4] = Phase 3 studies combined, all treated subjects
[5] = Phase 3 studies combined, all treated subjects, listed as Oral Paricalcitol
[6] = Phase 3 studies combined, all treated subjects, listed as oral paricalcitol
[7] = Phase 3 studies, TIW Treatment Regimen

C[C@H](/C=C/[C@H](C)C(C)(C)O)[C@H]1CC[C@H]2/C(=C/C=C3C[C@@H](O)C[C@H](O)C3)CCC[C@]12C [Paricalcitol, 19-nor-1α,3β,25-trihydroxy-9,10-secoergosta-5(Z); 7(E),22(E)-triene]
safety and tolerability ([1]; CKD (Stages 3 and 4) subjects): safe and well tolerated | adverse events considered not related to study drug administration ([1]; TIW, 24 weeks): 85% | adverse events mild or moderate in severity ([1]; TIW, 24 weeks): 88% | subjects with treatment-emergent adverse events ([1]; TIW, 24 weeks): 79% | subjects reporting serious adverse events ([1]; Treatment and Follow-Up Phases): 9 subjects | deaths ([1]; cardiopulmonary arrest, considered not related to study drug): 1 subject | adverse event incidence: constipation ([1]; in vivo): 8% | adverse event incidence: depression ([1]; in vivo): 8% | adverse event incidence: headache ([1]; in vivo): 8% | adverse event incidence: hypertension ([1]; in vivo): 8% | adverse event incidence: infection ([1]; in vivo): 8% | adverse event incidence: pain ([1]; in vivo): 10% | adverse event incidence: pharyngitis ([1]; in vivo): 10% | adverse event incidence: rhinitis ([1]; in vivo): 8% | adverse event incidence: vertigo ([1]; in vivo): 8% | subjects terminated prematurely due to adverse events ([1]; in vivo): 1 subjects | subjects who developed clinically meaningful hypercalcemia (at least 2 consecutive calcium values >10.5 mg/dL) ([1]; in vivo): 1/38 | Serum Osteocalcin, Change from Baseline (SE) to Week 11 [2, 4]: −3.94 (2.431) ng/mL | Urinary Deoxypyridinoline, Change from Baseline (SE) to Final [2, 4]: −0.0058 (0.00514) nmol/mg Creat | Urinary Pyridinoline, Change from Baseline (SE) to Week 11 [2, 4]: −5.21 (1.938) nmol/mmol Creat | Serum Bone-Specific Alkaline Phosphatase, Change from Baseline (SE) to Final [2, 5]: −7.890 (0.7596) mcg/L | Serum Bone-Specific Alkaline Phosphatase, Change from Baseline (SE) to Week 11 [2, 5]: −5.024 (0.6279) mcg/L | Serum Osteocalcin, Change from Baseline (SE) to Final [2, 5]: −21.64 (2.706) ng/mL | Urinary Deoxypyridinoline, Change from Baseline (SE) to Week 11 [2, 5]: −0.0155 (0.00433) nmol/mg Creat | Urinary Pyridinoline, Change from Baseline (SE) to Final [2, 5]: −3.61 (1.896) nmol/mmol Creat | Serum Bone-Specific Alkaline Phosphatase, Change from Baseline (SE) to Final [2, 6]: -7.89 µg/L | Serum Bone-Specific Alkaline Phosphatase, Change from Baseline (SE) to Week 11 [2, 6]: -5.024 µg/L | Serum Osteocalcin, Change from Baseline (SE) to Final [2, 6]: -21.64 ng/mL | Urinary Deoxypyridinoline, Change from Baseline (SE) to Week 11 [2, 6]: −0.0155 nmol/mg Creat | Urinary Pyridinoline, Change from Baseline (SE) to Final [2, 6]: −3.61 nmol/mmol Creat | Serum Bone-Specific Alkaline Phosphatase, Change from Baseline (SE) to Final [2, 7]: −8.043 (0.9033) mcg/L | Serum Bone-Specific Alkaline Phosphatase, Change from Baseline (SE) to Week 11 [2, 7]: −4.869 (0.7835) mcg/L | Serum Osteocalcin, Change from Baseline (SE) to Final [2, 7]: −18.96 (2.944) ng/mL | Serum Osteocalcin, Change from Baseline (SE) to Week 11 [2, 7]: −5.53 (2.720) ng/mL | Urinary Deoxypyridinoline, Change from Baseline (SE) to Final [2, 7]: −0.0130 (0.00357) nmol/mg Creat | Urinary Deoxypyridinoline, Change from Baseline (SE) to Week 11 [2, 7]: −0.0129 (0.00426) nmol/mg Creat | Urinary Pyridinoline, Change from Baseline (SE) to Final [2, 7]: −5.47 (1.789) nmol/mmol Creat | Urinary Pyridinoline, Change from Baseline (SE) to Week 11 [2, 7]: −5.19 (2.213) nmol/mmol Creat | Bone Spec. Alk Phos, Mean Change from Baseline ([2]; QD Regimen, N = 33 (Table 20)): −7.6 (1.40) mcg/L | Serum Osteocalcin, Mean Change from Baseline ([2]; QD Regimen, N = 33 (Table 20)): −27.1 (5.54) ng/mL | Serum Osteocalcin, Mean Change from Baseline ([2]; TIW Regimen, N = 67 (Table 20)): −19.0 (2.94) ng/mL | Bone Spec. Alk Phos, Mean Change from Baseline ([2]; TIW Regimen, N = 68 (Table 20)): −8.0 (0.90) mcg/L | subjects with 4 consecutive ≧30% decreases from baseline in iPTH ([3]; 26/32, exploratory analysis): 81% | subjects with 2 consecutive ≧30% decreases from baseline in iPTH ([3]; 29/32, TIW, 24 weeks, CKD Stages 3 and 4): 91% | 30% mean reduction in iPTH occurred by ([3]; TIW): ≤ 9 Week | mean change from baseline in iPTH at the Final Visit ([3]; TIW, 24 weeks): -80.7 pg/mL | mean change from baseline in iPTH at the Last On-Treatment Visit ([3]; TIW, 24 weeks): -83.1 pg/mL | percent decrease in iPTH at the Final Visit ([3]; TIW, 24 weeks): 30.3% | percent decrease in iPTH at the Last On-Treatment Visit ([3]; TIW, 24 weeks): 33.4% | maximum decrease from baseline in iPTH ([3]; observed at Week 17): −48.2%
